Source: PMC8952009 (Pharmaceuticals, 2022)
“Also recorded” adds a separate entry of the source.

Columns and labels:
[1] = molecular target: recombinant M^pro of MERS-CoV (Middle East respiratory syndrome-related coronavirus, UniProt K9N7C7); test: biochemical; assay type: binding
[2] = molecular target: recombinant M^pro of SARS-CoV-1 (Severe acute respiratory syndrome coronavirus, UniProt P0C6X7); test: biochemical; assay type: binding
[3] = molecular target: T1, recombinant M^pro of SARS-CoV-2 (Severe acute respiratory syndrome coronavirus 2, UniProt P0DTD1); test: biochemical; assay type: binding
T1 construct: This main protease is located in nsp5; purchased Bio-Techne

[4] = molecular target: SARS-CoV-1 M^pro (Severe acute respiratory syndrome coronavirus, UniProt P0C6X7); test: biochemical; conditions: for inhibition at 100 µM: read-out: Inhibition of enzymatic activity
[5] = molecular target: T2, SARS-CoV-2 M^pro (Severe acute respiratory syndrome coronavirus 2, UniProt P0DTD1); test: biochemical; conditions: for inhibition at 100 µM: read-out: Inhibition of enzymatic activity
T2 construct: This main protease is located in nsp5; purchased AnaSpec

[6] = molecular target: MERS-CoV M^pro (Middle East respiratory syndrome-related coronavirus, UniProt K9N7C7); test: biochemical; conditions: for inhibition at 100 µM: read-out: MERS-CoV M^pro activity inhibited to
[7] = test system: hepatitis C virus (HCV); conditions: chronic HCV infection; oral doses of 0.05 and 0.10 mg/kg/d; cited from earlier work
[8] = Resazurin cell viability assay; conditions: human, MRC-5 lung fibroblasts
[9] = test system: human diploid MRC-5 lung fibroblasts; test: Resazurin cell viability assay; conditions: MRC-5; tested range 0.3–100 µM; 72 h
[10] = test system: human immunodeficiency virus (HIV); conditions: orally administered, 0.5 mg/kg daily; limited number of patients; cited from earlier work
[11] = test system: SARS-CoV-2; conditions: cited from earlier work

Chain of MERS-CoV M^pro (K9N7C7 3248-3553 limits assumed): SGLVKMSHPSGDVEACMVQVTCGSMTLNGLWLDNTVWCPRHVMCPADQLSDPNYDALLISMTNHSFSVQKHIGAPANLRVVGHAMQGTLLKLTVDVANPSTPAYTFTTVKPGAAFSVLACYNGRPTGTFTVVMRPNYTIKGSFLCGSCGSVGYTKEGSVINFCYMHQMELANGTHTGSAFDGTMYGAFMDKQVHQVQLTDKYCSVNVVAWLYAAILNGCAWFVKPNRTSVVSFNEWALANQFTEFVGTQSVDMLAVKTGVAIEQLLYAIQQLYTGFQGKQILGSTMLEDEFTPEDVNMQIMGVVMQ
Chain of recombinant M^pro of MERS-CoV (K9N7C7 3248-3553 limits assumed): as above

Compound | Kd [1] [µM] | Kd [2] [µM] | Kd [3] [µM] | IC50 [4] [µM] | Therapeutic Index [4] | IC50 [5] [µM] | Percentage of activity of SARS-CoV-2 M^pro in the presence of compound [5] [%] | Therapeutic Index [5] | inhibition at 100 µM [5] [%] | IC50 [6] [µM] | Therapeutic Index [6] | Anti-HCV activity in patients [7] | CC50 at 72 h [8] [µM] | Inhibitory effect on cell viability [9] | Antiretroviral activity in clinical trial [10] | inhibition at 100 µM [6] [%] | inhibition at 100 µM [4] [%] | IC50 value, inhibition of SARS-CoV-2 replication [11] [µg/mL]
Cc1cc(O)c2c(=O)c3c(O)cc(O)c4c5c(O)cc(O)c6c(=O)c7c(O)cc(C)c8c1c2c(c34)c(c78)c65 [Hypericin] | 54.9 ± 13.8 | 25.5 ± 13.6 | 7.73 ± 6.5 | 19.4 ± 3.11 | 2.85 | 23.3 ± 1.21 | 4.95 | 2.38 | > 50 | 49.7 ± 5.41 | 1.11 | without detectable anti-HCV activity | 55.5 ± 2.2 | slight toxicity | without antiretroviral activity | – | – | –
COc1cc(-c2oc3cc(O)cc(O)c3c(=O)c2O)ccc1O [Isorhamnetin] | – | 3.6 ± 2.6 | 4.37 ± 3.9 | 13.1 ± 1.78 | 2.8 | 8.42 ± 1.15 | 8.56 | 4.37 | > 50 | – | – | – | 36.8 ± 3.4 | slight toxicity | – | 26.3 | – | –
O=c1cc(-c2ccc(O)c(O)c2)oc2cc(O)cc(O)c12 [Luteolin] | – | – | 13.4 ± 2.7 | – | – | 11.8 ± 1.27 | 10.10 | – | > 50 | – | – | – | – | – | – | 21.3 | 44 | –
O=C(/C=C/c1ccc(O)c(O)c1)O[C@H](Cc1ccc(O)c(O)c1)C(=O)O [Rosmarinic acid] | – | – | 15.5 ± 4.77 | – | – | 9.43 ± 0.46 | 8.28 | – | > 50 | – | – | – | – | did not show significant inhibitory effects; also recorded: did not inhibit | – | 14.9 | 31 | 25.47
